Test results: BindingDB's records for doi:10.1111/j.1747-0285.2010.01011.x (University of Mainz, 2010)
pKi: −log10 of the molar value.

What follows are molecules tested against 5-hydroxytryptamine receptor 2A (Homo sapiens, UniProt P28223) (assay: Competition Binding Assay). Conditions: pH 7.4; 37 °C.
Method: 5-HT-2A receptor affinity was determined by a radioligand competition binding assay with GF-62 cells, a clonal cell line expressing high amounts of 5-HT-2A receptors.

Sequence of 5-hydroxytryptamine receptor 2A (P28223 whole entry): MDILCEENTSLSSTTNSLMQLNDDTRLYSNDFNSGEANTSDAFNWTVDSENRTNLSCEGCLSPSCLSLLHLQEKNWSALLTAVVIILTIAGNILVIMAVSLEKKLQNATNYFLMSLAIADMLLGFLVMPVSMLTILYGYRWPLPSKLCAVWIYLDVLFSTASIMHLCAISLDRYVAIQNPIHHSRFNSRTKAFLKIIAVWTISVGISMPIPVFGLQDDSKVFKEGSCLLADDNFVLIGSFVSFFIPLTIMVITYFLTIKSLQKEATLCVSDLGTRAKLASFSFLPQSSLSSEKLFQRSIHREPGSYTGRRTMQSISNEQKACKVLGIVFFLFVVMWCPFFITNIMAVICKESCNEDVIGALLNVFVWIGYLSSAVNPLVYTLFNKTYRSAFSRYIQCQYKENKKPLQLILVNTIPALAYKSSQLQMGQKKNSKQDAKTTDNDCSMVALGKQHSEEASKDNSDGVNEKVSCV

Row | pKi | SMILES
1 | 6.45 | COc1c(OCCF)cccc1C(O)C1CCN(CCn2c(=S)[nH]c3ccccc3c2=O)CC1 (centres undefined) [3-[2-(4-{[3-(2-fluoroethoxy)-2-methoxyphenyl](hydroxy)methyl}piperidin-1-yl)ethyl]-2-sulfanylidene-1,2,3,4-tetrahydroquinazolin-4-one, 4c]
2 | 7.24 | COc1c(OCCF)cccc1/C(=N/OCCN(C)C)C1CCN(CCc2ccc(F)cc2)CC1 [(E)-[2-(dimethylamino)ethoxy]({[3-(2-fluoroethoxy)-2-methoxyphenyl]({1-[2-(4-fluorophenyl)ethyl]piperidin-4-yl})methylidene})amine, 8]
3 | 6.41 | COc1cccc(C(O)C2CCN(CCn3c(=S)[nH]c4ccccc4c3=O)CC2)c1OC (centres undefined) [3-(2-{4-[(2,3-dimethoxyphenyl)(hydroxy)methyl]piperidin-1-yl}ethyl)-2-sulfanylidene-1,2,3,4-tetrahydroquinazolin-4-one, 4b]
4 | 6.39 | COc1cccc(C(=O)C2CCN(CCn3c(=S)[nH]c4ccccc4c3=O)CC2)c1OC [3-(2-{4-[(2,3-dimethoxyphenyl)carbonyl]piperidin-1-yl}ethyl)-2-sulfanylidene-1,2,3,4-tetrahydroquinazolin-4-one, 4a]
